According to PubChem BioAssay (NCI):
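Dose response: 5 concentrations. Exposure: 48 h. Format: 96-well plates. Endpoint: linear interpolation; highest concentration if not reached. GI50 = concentration required for 50% inhibition of growth. TGI is the concentration that stops growth completely.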

What was measured:
Experiment in all cases: NCI-60 cell line screen, 48 h
786-0 renal = test system: 786-0 renal
A498 renal = test system: A498 renal
A549 NSCLC = test system: A549 NSCLC
ACHN renal = test system: ACHN renal
BT-549 breast = test system: BT-549 breast
CAKI-1 renal = test system: CAKI-1 renal
CCRF-CEM leukemia = test system: CCRF-CEM leukemia
COLO 205 colon = test system: COLO 205 colon
DU-145 prostate = test system: DU-145 prostate
EKVX NSCLC = test system: EKVX NSCLC
HCC-2998 colon = test system: HCC-2998 colon
HCT-116 colon = test system: HCT-116 colon
HCT-15 colon = test system: HCT-15 colon
HL-60(TB) leukemia = test system: HL-60(TB) leukemia
HOP-62 NSCLC = test system: HOP-62 NSCLC
HOP-92 NSCLC = test system: HOP-92 NSCLC
HS 578T breast = test system: HS 578T breast
HT29 colon = test system: HT29 colon
IGROV1 ovarian = test system: IGROV1 ovarian
K-562 leukemia = test system: K-562 leukemia
KM12 colon = test system: KM12 colon
LOX IMVI melanoma = test system: LOX IMVI melanoma
M14 melanoma = test system: M14 melanoma
MALME-3M melanoma = test system: MALME-3M melanoma
MCF7 breast = test system: MCF7 breast
MDA-MB-231 breast = test system: MDA-MB-231 breast
MDA-MB-435 = test system: MDA-MB-435
MDA-MB-468 breast = test system: MDA-MB-468 breast
MOLT-4 leukemia = test system: MOLT-4 leukemia
NCI-H226 lung = test system: NCI-H226 lung
NCI-H23 lung = test system: NCI-H23 lung
NCI-H460 lung = test system: NCI-H460 lung
NCI-H522 lung = test system: NCI-H522 lung
NCI/ADR-RES ovarian = test system: NCI/ADR-RES ovarian
OVCAR-3 ovarian = test system: OVCAR-3 ovarian
OVCAR-4 ovarian = test system: OVCAR-4 ovarian
OVCAR-5 ovarian = test system: OVCAR-5 ovarian
OVCAR-8 ovarian = test system: OVCAR-8 ovarian
PC-3 prostate = test system: PC-3 prostate
RPMI-8226 leukemia = test system: RPMI-8226 leukemia
RXF 393 renal = test system: RXF 393 renal
SF-268 CNS = test system: SF-268 CNS
SF-295 CNS = test system: SF-295 CNS
SF-539 CNS = test system: SF-539 CNS
SK-MEL-2 melanoma = test system: SK-MEL-2 melanoma
SK-MEL-28 melanoma = test system: SK-MEL-28 melanoma
SK-MEL-5 melanoma = test system: SK-MEL-5 melanoma
SK-OV-3 ovarian = test system: SK-OV-3 ovarian
SN12C renal = test system: SN12C renal
SNB-19 CNS = test system: SNB-19 CNS
SNB-75 CNS = test system: SNB-75 CNS
SR leukemia = test system: SR leukemia
SW-620 colon = test system: SW-620 colon
T-47D breast = test system: T-47D breast
TK-10 renal = test system: TK-10 renal
U251 CNS = test system: U251 CNS
UACC-257 melanoma = test system: UACC-257 melanoma
UACC-62 melanoma = test system: UACC-62 melanoma
UO-31 renal = test system: UO-31 renal

## COc1ccccc1-n1cc(C#N)c(N)c1C(=O)c1ccc(Cl)cc1Cl
786-0 renal
  GI50: 7.12 µM
  TGI: > 100 µM
A498 renal
  GI50: 72 µM
  TGI: > 100 µM
A549 NSCLC
  GI50: 7.39 µM
  TGI: > 100 µM
ACHN renal
  GI50: 7.79 µM
  TGI: > 100 µM
BT-549 breast
  GI50: 3.41 µM
  TGI: 58.5 µM
CAKI-1 renal
  GI50: 4.7 µM
  TGI: 28.4 µM
CCRF-CEM leukemia
  GI50: 4.68 µM
  TGI: > 100 µM
COLO 205 colon
  GI50: 5.7 µM
  TGI: > 100 µM
DU-145 prostate
  GI50: 9.73 µM
  TGI: > 100 µM
EKVX NSCLC
  GI50: 8.24 µM
  TGI: > 100 µM
HCC-2998 colon
  GI50: 12.4 µM
  TGI: > 100 µM
HCT-116 colon
  GI50: 4.02 µM
  TGI: 28.7 µM
HCT-15 colon
  GI50: 3.62 µM
  TGI: 64.9 µM
HL-60(TB) leukemia
  GI50: 3.15 µM
  TGI: 70.4 µM
HOP-62 NSCLC
  GI50: 6.4 µM
  TGI: 87.7 µM
HOP-92 NSCLC
  GI50: 16.8 µM
  TGI: > 100 µM
HS 578T breast
  GI50: 3.02 µM
  TGI: 58.1 µM
HT29 colon
  GI50: 3.18 µM
  TGI: > 100 µM
IGROV1 ovarian
  GI50: 7.49 µM
  TGI: > 100 µM
K-562 leukemia
  GI50: 3.63 µM
  TGI: > 100 µM
KM12 colon
  GI50: 3.9 µM
  TGI: > 100 µM
LOX IMVI melanoma
  GI50: 4.89 µM
  TGI: > 100 µM
M14 melanoma
  GI50: 3.27 µM
  TGI: > 100 µM
MALME-3M melanoma
  GI50: 4.2 µM
  TGI: > 100 µM
MCF7 breast
  GI50: 3.94 µM
  TGI: 35.2 µM
MDA-MB-231 breast
  GI50: 9.05 µM
  TGI: > 100 µM
MDA-MB-435
  GI50: 1.92 µM
  TGI: 4.41 µM
MDA-MB-468 breast
  GI50: 2.48 µM
  TGI: 8.82 µM
MOLT-4 leukemia
  GI50: 4.84 µM
  TGI: > 100 µM
NCI-H226 lung
  GI50: 5.79 µM
  TGI: 64.3 µM
NCI-H23 lung
  GI50: 7.55 µM
  TGI: > 100 µM
NCI-H460 lung
  GI50: 4.66 µM
  TGI: > 100 µM
NCI-H522 lung
  GI50: 1.87 µM
  TGI: 5.12 µM
NCI/ADR-RES ovarian
  GI50: 3.55 µM
  TGI: 64.2 µM
OVCAR-3 ovarian
  GI50: 3.86 µM
  TGI: 18.6 µM
OVCAR-4 ovarian
  GI50: 8.96 µM
  TGI: > 100 µM
OVCAR-5 ovarian
  GI50: 9.71 µM
  TGI: > 100 µM
OVCAR-8 ovarian
  GI50: 21 µM
  TGI: > 100 µM
PC-3 prostate
  GI50: 5.6 µM
  TGI: > 100 µM
RPMI-8226 leukemia
  GI50: 9.39 µM
  TGI: > 100 µM
RXF 393 renal
  GI50: 4.37 µM
  TGI: 39.3 µM
SF-268 CNS
  GI50: 9.77 µM
  TGI: > 100 µM
SF-295 CNS
  GI50: 3.72 µM
  TGI: 27 µM
SF-539 CNS
  GI50: 3.37 µM
  TGI: 11.5 µM
SK-MEL-2 melanoma
  GI50: 2.69 µM
  TGI: 7.5 µM
SK-MEL-28 melanoma
  GI50: 7.58 µM
  TGI: > 100 µM
SK-MEL-5 melanoma
  GI50: 4.84 µM
  TGI: > 100 µM
SK-OV-3 ovarian
  GI50: 3.36 µM
  TGI: 28.3 µM
SN12C renal
  GI50: 5.24 µM
  TGI: > 100 µM
SNB-19 CNS
  GI50: 6.6 µM
  TGI: 61.6 µM
SNB-75 CNS
  GI50: 2.61 µM
  TGI: 8.54 µM
SR leukemia
  GI50: 3.53 µM
  TGI: > 100 µM
SW-620 colon
  GI50: 3.98 µM
  TGI: > 100 µM
T-47D breast
  GI50: 4.53 µM
  TGI: > 100 µM
TK-10 renal
  GI50: 52.9 µM
  TGI: > 100 µM
U251 CNS
  GI50: 4.45 µM
  TGI: > 100 µM
UACC-257 melanoma
  GI50: 6.31 µM
  TGI: > 100 µM
UACC-62 melanoma
  GI50: 3.67 µM
  TGI: 42.8 µM
UO-31 renal
  GI50: 7.87 µM
  TGI: > 100 µM
